The text below walks through data of US7332489B2, “Methods and compositions of novel triazine compounds” (Reddy US Therapeutics, Inc., priority 2003, dated 2008).

Read-outs that look alike come from different tables or passages of the source.

This test has as its system TNF-α induced IL-6. Description: TNF-α-induced IL-6 production determined by IL-6 ELISA. In kind it is cell-based. The following applies: for activity at 10 µM: Homo sapiens, 24 h; for % IL6 production compare to TNF stimulation of IL6 (100%), Compds tested @ 10 uM HAEC, IL6: 10 uM compound, TNF stimulation = 100%. The method, then:
Human aortic endothelial cells (HAEC, Clonetics) were cultured according to manufacturer in growth medium (Clonetics): basal medium containing human epidermal growth factor, hydrocortisone, vascular endothelial growth factor, heparin binding growth factor-B, long R3-insulin-like growth factor-1, ascorbic acid, gentamicin/amphotericin and 5% FBS. These cell were allowed to reach at least 90% confluency before subjected to experimental treatments. […] Tumor necrosis factor α was from R&D Systems.
All treatments, compound-added and controls were carried out in serum free media containing 0.2% albumin. Media from all conditions were collected and used for IL-6 ELISA.
IL-6 ELISA was carried out using human IL-6 DuoSet ELISA development kit as described by manufacturer (R&D Systems). Mouse anti-human Il-6 was used as the capture antibody (2 ug/ml) and biotinylated goat anti-human IL-6 (200 ng/ml) was used as the detection antibody. Culture media were incubated with capture antibody (in 96 well) for 2 h at room temperature. Wells were washed three times with wash buffer (0.05% tween-20 in phosphate buffered saline (PBS) pH 7.4) followed by incubation with detection antibody for 2 h at room temperature. Following three washes wells were incubated with Streptavidin-HRP for 20 min. Color development was read at 450 nm in a Microplate reader.
(In general: ELISA stands for enzyme-linked immunosorbent assay.)

Setting [1] is: Table 5, first part, class = % of control IL6 production, read-out: Inhibition of TNF-induced IL6 production.
The mark [2] stands for this setting: Table 5, second part, column 1, class = % of control IL6 production, read-out: Inhibition of TNF-induced IL6, production.
[3] abbreviates: read-out: Inhibition of TNF-induced IL6 production.

`COc1ccc(Nc2nc(NC3CCCCCC3)nc(NC(C)(C)C)n2)cc1F` [Compound 77, N^2-(tert-butyl)-N^4-cycloheptyl-N^6-(3-fluoro-4-methoxyphenyl)-1,3,5-triazine-2,4,6-triamine]: under setting [1], the activity at 10 µM is 0 to 25%.
Still for that read-out and setting: as for `COc1ccc(Nc2nc(NCc3ccccc3)nc(NC3CCCCCC3)n2)cc1F` [Compound 78, N^2-benzyl-N^4-cycloheptyl-N^6-(3-fluoro-4-methoxyphenyl)-1,3,5-triazine-2,4,6-triamine], the figure is 25 to 50%; as for `COc1ccc(Nc2nc(NC3CCCCCC3)nc(N3CCCC3)n2)cc1F` [Compound 82, N^2-cycloheptyl-N^4-(3-fluoro-4-methoxyphenyl)-6-(1-pyrrolidinyl)-1,3,5-triazine-2,4-diamine], 25 to 50%; as for `COc1ccc(Nc2nc(NC3CCCCCC3)nc(N3CCCCCC3)n2)cc1F` [Compound 83, N^2-cycloheptyl-N^4-(3-fluoro-4-methoxyphenyl)-6-hexahydro-1H-azepin-1-yl-1,3,5-triazine-2,4-diamine], 0 to 25%.
For `COc1ccc(Nc2nc(NC3CCCCCC3)nc(N3CCCC4CCCCC43)n2)cc1F` (stereo not drawn) [Compound 84, N^2-cycloheptyl-N^4-(3-fluoro-4-methoxyphenyl)-6-octahydro-1(2H)-quinolinyl-1,3,5-triazine-2,4-diamine], the activity at 10 µM under setting [1] was in the range of 25 to 50%.
For `COc1ccc(Nc2nc(NC3CCCCCC3)nc(NC3CCC(C)CC3)n2)cc1F` (stereo not drawn) [Compound 85, N^2-cycloheptyl-N^4-(3-fluoro-4-methoxyphenyl)-N^6-(4-methylcyclohexyl)-1,3,5-triazine-2,4,6-triamine], the activity at 10 µM under setting [1] is 25 to 50%.
On to `COC[C@@H]1CCCN1c1nc(Nc2ccc(OC)c(F)c2)nc(NC2CCCCCC2)n1` [Compound 86, N^2-cycloheptyl-N^4-(3-fluoro-4-methoxyphenyl)-6-[(2S)-2-(methoxymethyl)-1-pyrrolidinyl]-1,3,5-triazine-2,4-diamine], for which, under setting [1], the activity at 10 µM fell in the range of 0 to 25%.
For the compound `COc1ccc(Nc2nc(NC3CCCCCC3)nc(N3CCN(C)CC3)n2)cc1F` [Compound 87, N^2-cycloheptyl-N^4-(3-fluoro-4-methoxyphenyl)-6-(4-methyl-1-piperazinyl)-1,3,5-triazine-2,4-diamine], under setting [2], the activity at 10 µM is 0 to 25%.
`COc1ccc(Nc2nc(NC3CCCCCC3)nc(N3CCN(C(C)=O)CC3)n2)cc1F` [Compound 88, 6-(4-acetyl-1-piperazinyl)-N^2-cycloheptyl-N^4-(3-fluoro-4-methoxyphenyl)-1,3,5-triazine-2,4-diamine]: under setting [1], the activity at 10 µM lay in the range of 0 to 25%.
On the same count and under the same terms, as for `COc1ccc(Nc2nc(NCc3ccco3)nc(NC3CCCCCC3)n2)cc1F` [Compound 91, N^2-cycloheptyl-N^4-(3-fluoro-4-methoxyphenyl)-N^6-(2-furanylmethyl)-1,3,5-triazine-2,4,6-triamine], the figure is 25 to 50%.
Take `COc1ccc(Nc2nc(NC3CCCCCC3)nc(N3CCN(CC(=O)N4CCCC4)CC3)n2)cc1F` [Compound 94, N^2-cycloheptyl-N^4-(3-fluoro-4-methoxyphenyl)-6-{4-[2-oxo-(1-pyrrolidinyl)ethyl]-1-piperazinyl}-1,3,5-triazine-2,4-diamine]: the activity at 10 µM lay in the range of 25 to 50% under setting [1] and 0 to 25% under setting [2].
Turning to `CCN1CCCC1CNc1nc(Nc2ccc(OC)c(F)c2)nc(NC2CCCCCC2)n1` (stereo not drawn) [Compound 95, N^2-cycloheptyl-N^4-[(1-ethyl-2-pyrrolidinyl)methyl]-N^6-(3-fluoro-4-methoxyphenyl)-1,3,5-triazine-2,4,6-triamine], the activity at 10 µM runs as follows: (read-out: Inhibition of TNF-induced IL6, production) 0 to 25%; under setting [3], 0 to 25%.
In the case of `COc1ccc(Nc2nc(NCCN3CCCCC3)nc(NC3CCCCCC3)n2)cc1F` [Compound 96, N^2-cycloheptyl-N^4-(3-fluoro-4-methoxyphenyl)-N^6-[2-(1-piperidinyl)ethyl]-1,3,5-triazine-2,4,6-triamine], the activity at 10 µM under setting [1] lay within 0 to 25%.
On to `COc1ccc(Nc2nc(NCCCN3CCCC3=O)nc(NC3CCCCCC3)n2)cc1F` [Compound 99, 1-[3-({4-(cycloheptylamino)-6-[(3-fluoro-4-methoxyphenyl)amino]-1,3,5-triazin-2-yl}amino)propyl]-2-pyrrolidinone], for which the activity at 10 µM by setting is: under setting [1], 25 to 50%; under setting [2], 0 to 25%.
`COc1ccc(Nc2nc(NCCCn3ccnc3)nc(NC3CCCCCC3)n2)cc1F` [Compound 100, N^2-cycloheptyl-N^4-(3-fluoro-4-methoxyphenyl)-N^6-[3-(1H-imidazol-1-yl)propyl]-1,3,5-triazine-2,4,6-triamine]: the activity at 10 µM under setting [2] lay in the range of 0 to 25%.
`COc1ccc(Nc2nc(NCCCCCO)nc(N(C)C3CCN(C)CC3)n2)cc1Cl` [Compound 108, 5-{4-(3-Chloro-4-methoxy-phenylamino)-6-[methyl-(1-methyl-piperidin-4-yl)-amino]-[1,3,5]triazin-2-ylamino}-pentan-1-ol]: the activity at 10 µM reads like this: (read-out: % IL6 production compare to TNF stimulation of IL6 (100%), Compds tested @ 10 uM HAEC, IL6) 25%; under setting [3], 25 to 50%.
With `COc1ccc(Nc2nc(Cl)nc(NC3CCCCCC3)n2)cc1F` [Compound 127, 6-Chloro-N-cycloheheptyl-N′-(3-fluoro-4-methoxy-phenyl)-[1,3,5]triazine-2,4-diamine], the activity at 10 µM under setting [1] lay in the range of 25 to 50%.
As to `CCN1CCC[C@H]1CNc1nc(NCC2CCCCC2)nc(Nc2ccc(OC)c(F)c2)n1` [Compound 141, N^2-cyclohexylmethyl-N^4-((S)-1-ethyl-pyrrolidin-2-ylmethyl)-N^6-(3-fluoro-4-methoxyphenyl)-1,3,5-triazine-2,4,6-triamine], the “% IL6 production compare to TNF stimulation of IL6 (100%), Compds tested @ 10 uM HAEC, IL6” value (“% IL6 production compare” below) amounted to 23.44%. Moreover, the activity at 10 µM under setting [1] lay in the range of 0 to 25%.
On to `CCN1CCC[C@@H]1CNc1nc(NCC2CCCCC2)nc(Nc2ccc(OC)c(F)c2)n1` [Compound 142, N^2-cyclohexylmethyl-N^4-((R)-1-ethyl-pyrrolidin-2-ylmethyl)-N^6-(3-fluoro-4-methoxyphenyl)-1,3,5-triazine-2,4,6-triamine], for which the “% IL6 production compare” value was determined as 21.62%. Also, the activity at 10 µM under setting [1] was 0 to 25%.
Turning to `CCN1CCC[C@H]1CNc1nc(NC2CCCCCC2)nc(N(CC#N)c2ccccc2)n1` [Compound 143, ({4-cycloheptylamino-6-[((S)-1-ethyl-pyrrolidin-2-ylmethyl)-amino]-1,3,5-triazin-2-yl}-phenyl-amino)-acetonitrile], the “% IL6 production compare” value is given as 18.88%. Also, under setting [1], the activity at 10 µM lay in the range of 0 to 25%.
As for `CCN1CCC[C@@H]1CNc1nc(NC2CCCCCC2)nc(N(CC#N)c2ccccc2)n1` [Compound 144, ({4-cycloheptylamino-6-[((R)-1-ethyl-pyrrolidin-2-ylmethyl)-amino]-1,3,5-triazin-2-yl}-phenyl-amino)-acetonitrile], under setting [1], the activity at 10 µM lay in the range of 0 to 25%.
Regarding `COc1ccc(Nc2nc(NC3CC3)nc(NC3CC3)n2)cc1F` [Compound 157, N,N′-dicyclopropyl-N″-(3-fluoro-4-methoxy-phenyl)-1,3,5-triazine-2,4,6-triamine], the “% IL6 production compare” value came to 60.48%. Besides, the activity at 10 µM under setting [1] was 50 to 75%.
